From patent US20250032425A1, “FIRST IN CLASS USE OF ESTROGEN RECEPTOR BETA AGONISTS IN TREATING ANGELMAN SYNDROME AND RELEVANT AUTISM SPECTRUM DISORDERS” (BROWN UNIVERSITY, priority 2023, published 2025) come the findings set out here.

What all share (type): cell-based, human
Experiment [1] deals with UBE3A-deficient iOPCs. As to the kind of experiment: Ki67 (and PCNA) immunoblotting in UBE3A-knockdown iOPCs: compound screen and rescue of proliferation. Particulars: for impact of UBE3A loss on OPC proliferation (FIG. 18F, 19G): ERβ activators of different structural classes; for effect of AC-186 to enhance proliferation of iOPCs with UBE3A knockdown (Ki67): MEK inhibitor with AC-186 co-treatment (10 μM, 24 hours); for restoration of Ki67 expression in compound screen: Ki67 immunoblotting normalized to siNC=1.0. As to the method: Given the scarcity of knowledge regarding UBE3A function in oligodendrocyte biology, a comprehensive exploration of various cellular functions was performed, leveraging the high-throughput capabilities of the iPSC-based methodology (e.g., as described herein). We selected over 45 compounds with known targeted cellular actions (Table 1). These were chosen based on their documented effects on UBE3A, their ability to promote oligodendrocyte development and myelination, or their protective 10 roles in neural tissue. UBE3A expression was modulated using siRNA, achieving a controlled reduction that decreased OPC proliferation by approximately 50%, as evidenced by Ki67 protein levels.
iPSC Culturing and Generation of Induced Human Brain Cells Including Oligodendroglia, Neurons (IN), Astrocytes (iAs) and Microglia (iMG) The generation of iPSC-derived human oligodendrocyte precursor cells (iOPCs) was carried out according to a previously published protocol by Vulakh and Yang et al., 2023 (Characterizing the Neuron-Glial Interactions by the Co-cultures of Human iPSC-Derived Oligodendroglia and Neurons. Methods Mol. Biol. 2683), which itself was a modification of an earlier protocol by Assetta et al., 2020 (Generation of Human Neurons and Oligodendrocytes from Pluripotent Stem Cells for Modeling Neuron-Oligodendrocyte Interactions. J Vis Exp.). The process began with the control iPSCs, which is a well-characterized control reference line acquired from the NIH-funded iPSC Neurodegenerative Disease Initiative (INDI, (Ramos, D. M., Skarnes, W. C., Singleton, A. B., Cookson, M. R., and Ward, M. E. (2021). Tackling neurodegenerative diseases with genomic engineering: A new stem cell initiative from the NIH. Neuron 109, 1080-1083. 10.1016/j.neuron.2021.03.022)), distributed by the Jackson Laboratory. These iPSCs were maintained in mTeSR plus medium (StemCell Technologies, #05825) and expanded in Stem Flex medium (Fisher Scientific. #A3349401) for the induction of neural progenitor cells (INPC). The iNPCs were derived by treating iPSCs with a commercial SMAD inhibitor medium (StemCell Technologies, #08582) for 7 days (Week 1). Subsequently, NPCs were further induced to become OPCs by a 7-day incubation (Week 2) with a chemically-defined OPC medium: DMEM/F12 medium (Thermo Fisher, #11320033) supplemented by 10 ng/ml PDGF-AA (R&D Systems, #221-AA-025), 1 μM SAG (Tocris, #4366), […] N-Acetyl-Cysteine (Millipore Sigma, #A9165-5G), 20 ng/mL bFGF (R&D Systems, #233-FB-025/CF), 1% N2 supplement (Thermo Fisher, #17502048), and 1% B27 supplement (Thermo Fisher, #17504044). […] The additional incubation with OL medium for 7-14 days (Week 4-5) yielded mature, myelinating OLs.
(§1) The siRNAs targeting UBE3A (Thermo Fisher, #4390815 and #4390816), estrogen receptors (Thermo Scientific #145909 for ESRβ, #145539 for ESRα, and #4390824 for GPER), and negative control (Thermo Scientific, #AM4615) were obtained commercially. The 10-20 nM final concentration was used with Lipofectamine RNAiMAX transfection reagent (Thermo Scientific #13778075) and incubated for at least 48 hours before the treatments of therapeutic compounds or other reagents.
Cells were collected by fast spin down in centrifuge tubes before lysis in RIPA buffer (ThermoFisher, #89901) supplemented with proteinase inhibitor cocktail (Sigma-Aldrich, #5892791001) on ice. Lysates were then spun down at 15000 rpm for 10 mins, the supernatant was collected and mixed with 4× Laemmle sample buffer (Bio-Rad, #1610747) and cooked 10 mins before SDS-PAGE and transferred with Bio-Rad fast transfer system, the membranes were blocked for one hour in 1× Tris Buffered Saline (TBS) with 1% Casein buffer (Bio-Rad, #1610782) and incubated with primary antibodies overnight at 4 degrees. […]
Background: In western blotting, separated proteins are transferred to a membrane and probed.

Experiment [2] has as its system iOPCs expressing Cas9 and a sgRNA targeting UBE3A. As to the kind of experiment: EdU incorporation in iOPCs with CRISPR/Cas9 UBE3A depletion (Lenti-sgUBE3A #1-3). The following applies: 10 μM; any of the sgRNAs. As to the method: The sgRNAs targeting UBE3A, and negative control were obtained from Applied Biological Materials Inc. Targeting sgRNA sequences against UBE3A are: sgRNA1, […]; sgRNA2, […]; sgRNA3, […]. These sgRNAs were integrated into the backbone of the negative control pLenti-U6-sgRNA-SFFV-Cas9-2A-Puro. All constructs were packaged into lentiviruses and concentrated by Lenti-X Concentrator (Takara Bio #631231). In each experiment, 5-10 μl of concentrated virus was administered into ˜70% confluent iOPCs cultures in 6-well plates. One day post-lentiviral transduction, iOPC cultures were treated with approximately 5 μg/ml Puromycin to isolate those iOPCs which are expressing Cas9/sgRNAs. Following a day of selection, the iOPCs were then seeded on gelatin-coated coverslips placed in 24-well plates at a density of 100,000 cells per well. After another day allowed for cell stabilization, treatment with either the vehicle control (DMSO), AC-186, DPN, or LY500307 commenced at a standard concentration of 10 μM. A final 24-hour period after this treatment saw the cells exposed to […] for three hours, preparing them for subsequent immunofluorescence staining.
The EdU labeling kit from ThermoFisher Scientific (#C10637) was used to trace cell proliferation by incubating iOPCs with 2 μM EdU for three hours before fixation. Following EdU incorporation, cells were fixed in 4% paraformaldehyde, blocked with normal serum, and stained with primary antibodies, Rabbit anti-Ki67 and Mouse anti-UBE3A. These steps were conducted according to the manual of the labeling kit and also detailed immunofluorescence staining protocols described below, to ensure specific detection of the proliferation marker Ki67 and the ubiquitin-protein ligase UBE3A in the cells for subsequent imaging analysis.

In experiment [3] the test system is ERK/MAPK signaling pathway. As to the kind of experiment: ERK/MAPK and S6 activation in iOPCs by immunoblotting (phosphorylated to total ratio). The following applies: MEK inhibitor added to UBE3A-depleted OPCs with AC-186.
Description: FIGS. 20A-20E depict the identification of ESR-β signaling pathway in regulating OPC proliferation impaired by UBE3A depletion. FIG. 20A: Immunofluorescence to track estrogen receptor (ESR) expression in OPCs, by staining of all 3 ESRs, ESR-α, ESR-β and GPER (top panels), in iOPCs co-labeled with UBE3A (middle panels) and DAPI; scale bar, 100 μm. […] FIG. 20B: Immunoblotting to assess OPC expression of individual ESRs, by analyzing protein levels of ESR-α, ESR-β and GPER in iOPCs treated with siNC or siUBE3A, normalized to GAPDH and expressed relative to the siNC condition (set as 1.0). After treatment with siUBE3A, expression of ESR-β was decreased, while expression of GPER was increased. n=5-6 experiments. FIG. 20C: The activation of the ERK/MAPK signaling pathway in OPCs, particularly downstream of ESR-β, was analyzed in iOPCs subjected to 6 knockdown conditions: siNC, siUBE3A, siESRα, siESRβ, and combinations of siUBE3A with siESRα or siESRβ. These were followed by treatment with vehicle control or the ESR-β agonist AC-186 (10 μM, 30 min). The activation of ERK and its substrate S6 was determined by the ratio of phosphorylated to total ERK and S6 levels, adjusted relative to the vehicle control group (standard value of 1.0). ERK phosphorylation and S6 phosphorylation was decreased in cells treated with siESRβ, or siESRβ and siUBE3A combined. n=3 experiments. FIG. 20D: Immunoblotting to evaluate the role of ERK/MAPK activation in the restoration of OPC proliferation following ESR-β activation, with the addition of ERK phosphorylation inhibitors U0126 or PD98059 to UBE3A-depleted OPCs, with or without AC-186 co-treatment (10 μM. 24 hours). The quantification of Ki67 expression and UBE3A levels, being normalized to β-tubulin (TUBB1) and compared to the siNC condition (value of 1.0). n=5 experiments. FIG. 20E: A schematic depicting the regulatory role of ESR-β signaling pathway in OPC proliferation, identified by combining genetic knockdown techniques and pharmacological interventions. Activation of ESR-β selectively triggers the ERK/MAPK pathway, as shown by ERK phosphorylation and the ERK substrate S6 activation, essential for cell proliferation. […] As applicable: statistical significance was determined using One-way ANOVA followed by post-hoc comparisons, with selected comparisons presented. Significance levels marked as *p<0.05. ** p<0.005. *** p<0.001. **** p<0.0001, ns not significant, across relevant comparisons.
as §1
Cells were collected by fast spin down in centrifuge tubes before lysis in RIPA buffer (ThermoFisher, #89901) supplemented with proteinase inhibitor cocktail (Sigma-Aldrich, #5892791001) on ice. Lysates were then spun down at 15000 rpm for 10 mins, the supernatant was collected and mixed with 4× Laemmle sample buffer (Bio-Rad, #1610747) and cooked 10 mins before SDS-PAGE and transferred with Bio-Rad fast transfer system, the membranes were blocked for one hour in 1× Tris Buffered Saline (TBS) with 1% Casein buffer (Bio-Rad, #1610782) and incubated with primary antibodies overnight at 4 degrees. After 3 times washing in TBST washing buffers (ThermoFisher, #28352), the membranes were incubated with HRP conjugated antibodies and developed with Clarity Max™ Western ECL Substrate (Bio-Rad, #1705062) before being filmed in the iBright imaging system.

The subject of experiment [4] is AS iOPCs differentiated into iOLs. As to the kind of experiment: Differentiation of AS patient-derived iOPCs into iOLs (MAG, CNPase, MBP). The following applies: AC-186 10 μM or clemastine 2.5 μM, 72 hours.
For experiment [5], the system named is UBE3A-deficient iOPCs and iOLs. As to the kind of experiment: Oligodendrocyte differentiation of UBE3A-deficient iOPCs into iOLs (immunoblotting of Ki67, MAG, CNPase). The following applies: UBE3A-deficient iOLs; AC-186 (10 µM), clemastine (2.5 μM); 3 days.
Description: FIG. 25C: Immunoblotting was conducted to assess the impact of UBE3A depletion on ESR-β expression during oligodendrocyte differentiation. Protein levels of ESR-β in UBE3A-deficient iOPCs and subsequently differentiated iOLs were quantified, normalized against the loading control GAPDH, and expressed relative to the iOPC+siNC control condition (set at 1.0). […] Levels of Ki67 and Myelin Associated Glycoprotein (MAG) were measured in UBE3A-deficient iOPCs and iOLs differentiated from them, normalized against GAPDH, and compared to the iOPC+siNC condition. n=4 experiments. FIG. 25E: Immunoblotting to examine the role of UBE3A for OPC self-renewal and oligodendrocyte differentiation across different developmental stages. Expression of maturation and myelination markers (MBP, MAG, PLP1, CNPase) was quantified following UBE3A depletion timed from iOPCs to pre-iOLs, normalized against TUBB1. and compared to the iOPC+siNC control condition (set at 1.0). n=4 experiments.
Where [6] appears, read: siUBE3A cells, 10 μM, 24 hours, normalized to GAPDH.

“Also recorded” adds a separate entry of the source.

Consider `Oc1ccc([C@@H]2Oc3ccc(O)cc3[C@@H]3CCC[C@@H]32)cc1` [LY500307, reference compound], for which, in experiment [1], the “impact of UBE3A loss on OPC proliferation (FIG. 18F, 19G)” value (“impact of UBE3A loss” for short) is given as “similarly mitigated the impact of UBE3A loss on OPC proliferation”. Further, in experiment [1] (setting [6]), the “Ki67 expression (FIG. 19G)” value is reported as “increased expression” and the “PCNA expression (FIG. 19G)” value was “increased expression”. Also, the “number of EdU+ cells” value in experiment [2] was “increased the number of EdU+ cells”. For `O=C1C[C@@H](c2ccc(O)cc2)Oc2cc(O)ccc21` [Liquiritigenin, reference compound], the “impact of UBE3A loss” value in experiment [1] is “similarly mitigated the impact of UBE3A loss on OPC proliferation”. Regarding `COc1cccc(-c2cc(=O)c3ccccc3o2)c1N` [PD98059, reference compound], the “effect of AC-186 to enhance proliferation of iOPCs with UBE3A knockdown (Ki67)” value in experiment [1] is listed as “reduced”. The “ERK/MAPK pathway activation stimulated by AC-186” value in experiment [3] is “inhibited”. In the case of `N#CC(=C(/N)Sc1ccccc1N)/C(C#N)=C(\N)Sc1ccccc1N` [U0126, reference compound], in experiment [1], the “effect of AC-186 to enhance proliferation of iOPCs with UBE3A knockdown (Ki67)” value is “reduced”. Also, in experiment [3], the “ERK/MAPK pathway activation stimulated by AC-186” value is given as “inhibited”. For `Oc1ccc(-c2nc3cc(O)cc(Br)c3o2)cc1` [WAY-200070, reference compound], the “impact of UBE3A loss” value in experiment [1] is “similarly mitigated the impact of UBE3A loss on OPC proliferation”. Take `CN1CCC[C@@H]1CCO[C@](C)(c1ccccc1)c1ccc(Cl)cc1` [clemastine, Clemastine, reference compound]: in experiment [4], the “oligodendrocyte differentiation (MAG, CNPase, MBP)” value is on record as “positively influenced the differentiation process”. Moreover, the “oligodendrocyte differentiation (MAG), FIG. 25D” value in experiment [5] is listed as “enhanced differentiation”. As for “FGF: fibroblast growth factor; bFGF, human recombinant”, in experiment [1] (10 μM, 24 hours), the “restoration of Ki67 expression in compound screen” value is “restored; also recorded: effectively normalized proliferation levels; also recorded: Statistically significant; also recorded: capable of restoring Ki67 expression”.

B1: BDNF: brain-derived neurotrophic factor, human recombinant; neurotrophin that belongs to NGF-beta family (protein, UniProt P23560 19-247, looked up)
Neurotrophic factor BDNF …: APMKEANIRGQGGLAYPGVRTHGTLESVNGPKAGSRGLTSLADTFEHVIEELLDEDQKVRPNEENNKDADLYTSRVMLSSQVPLEPPLLFLLEEYKNYLDAANMSMRVRRHSDPARRGELSVCDSISEWVTAADKKTAVDMSGGTVTVLEKVPVSKGQLKQYFYETKCNPMGYTKEGCRGIDKRHWNSQCRTTQSYVRALTMDSKKRIGWRFIRIDTSCVCTLTIKRGR
B1: the “restoration of Ki67 expression in compound screen” value in experiment [1] (10 μM, 24 hours) is “restored; also recorded: effectively normalized proliferation levels; also recorded: Statistically significant; also recorded: capable of restoring Ki67 expression”.
